# Measurements reported in publication PMC10459042, “Synthesis of 1,2,3-Triazole-Containing Methoxylated Cinnamides and Their Antileishmanial Activity against the Leishmania braziliensis Species” (Pharmaceuticals, 2023).
# Columns and labels:
# [1] = Cytotoxicity in mammalian cells (MTT); assay type: cell-based; conditions: mouse; murine macrophages, 48 h at 37 °C in 5% CO2, MTT, mean ± standard deviation
# Experimental: (§1) The in vitro antileishmanial activity was evaluated by incubating the promastigotes or axenic amastigotes (1 × 10^6 cells/well) with the 24 synthetic derivatives (Compounds 5–28; 0 to 600 µg/mL) in 96-well culture plates (Nunc, Nunclon, Roskilde, Denmark) for 48 h at 24 °C. Due to the difficulty in obtaining a high concentration of murine macrophages, the cytotoxicity experiment was evaluated by incubating such cells (5 × 10^5 per mL) with Compound 28 (0 to 600 µg/mL), which presented the best antileishmanial activity, for 48 h at 37 °C in a 5% CO2 environment. AmpB (0 to 10 µg/mL; Sigma-Aldrich, St. Louis, MO, USA) was used as a positive control in both experiments. The cell viability was assessed using the 3-(4.5-dimethylthiazol-2-yl)-2.5-diphenyl tetrazolium bromide (MTT, Sigma-Aldrich, St. Louis, MO, USA) method. The optical density (OD) values were read using a microplate spectrophotometer (Molecular Devices, Spectra Max Plus, San Jose, CA, USA) at 570 nm. Results were entered into Microsoft Excel (version 10.0) spreadsheets, and the 50% Leishmania and macrophage inhibitory concentrations (IC50 and CC50, respectively) were calculated by applying a sigmoidal regression of the dose–response curve. The SI was calculated by dividing the CC50 with the respective IC50 values.
# [2] = test system: L. braziliensis promastigotes infecting murine macrophages; assay: Inhibition of infection (parasites pre-incubated with compound, then used to infect macrophages); assay type: cell-based, Leishmania braziliensis; conditions: for Number of Amastigotes per Cell using pre-incubated parasites: untreated 8.9; for Percentage of Infected Macrophages Using Pre-Incubated Parasites: untreated 90.5
# Experimental: To evaluate the inhibition of infection, promastigotes (5 × 10^6 cells) were first incubated with Compound 28 or AmpB (0, 1.0, 2.5 and 5.0 µg/mL in both cases) for 4 h at 24 °C; these were then used to infect murine macrophages (at a ratio of 10 parasites per macrophage) and incubated for 24 h at 37 °C in 5% CO2. Then, cells were fixed with 4% paraformaldehyde, washed, and stained with Giemsa. The percentage of infected macrophages and the number of recovered amastigotes were determined by counting 200 cells, in triplicate, using an optical microscope.
# [3] = test system: Leishmania braziliensis axenic amastigotes; assay: In vitro antileishmanial activity against axenic amastigotes (MTT); assay type: cell-based
# Experimental: To obtain the axenic amastigotes, 1 × 10^9 stationary promastigotes were washed three times in sterile phosphate-buffered saline (PBS) and incubated in 5 mL FBS for 48 h at 37 °C. Parasites were washed with cold PBS, and their morphology was evaluated with an optical microscope after Giemsa staining as previously described.
# as §1
# [4] = test system: Leishmania braziliensis stationary promastigotes; assay: In vitro antileishmanial activity against promastigotes (MTT); assay type: cell-based
# Experimental: The study was approved by the Committee for the Ethical Handling of Research Animals from the Federal University of Minas Gerais (protocol number 085/2017). Leishmania braziliensis (MHOM/BR/1975/M2904) promastigotes were grown at 24 °C in Schneider’s medium (Sigma-Aldrich, USA) supplemented with 20% heat-inactivated fetal bovine serum (FBS, Sigma-Aldrich, USA) and 20 mmol/L L-glutamine at pH 7.4 [65].
# as §1
# [5] = test system: L. braziliensis promastigotes; assay: ROS production in promastigotes (H2DCFDA); assay type: cell-based, Leishmania braziliensis; conditions: one IC50 value, 48 h at 24 °C
# Experimental: After treatment with Compound 28 (at a concentration corresponding to one IC50 value) for 48 h at 24 °C, L. braziliensis promastigotes were washed with PBS, and the parasite concentration was adjusted to 3 × 10^6 cells per well. H2DCFDA (Sigma-Aldrich, St. Louis, MO, USA) was then added and incubated for 30 min in the dark, and samples were read in a fluorometric microplate reader (FLx800, BioTek Instruments, Winooski, VT, USA) with excitation and emission wavelengths of 485 and 528 nm, respectively. Parasites that were untreated or treated with Compound 28 and not labeled with the fluorescent probe were used as the blank.
# Figure 4 ΔΨm and ROS production in Leishmania after exposure to Compound 28. Leishmania braziliensis promastigotes were not exposed (negative control) or exposed to Compound 28 (at a concentration corresponding to the IC50 value) for 48 h. (A) Depolarization of ΔΨm was evaluated using the JC-1 fluorescent probe. Samples were analyzed fluorometrically, and the results are expressed as the ratio of red/green fluorescence. FCCP ([…]) was used as a positive control. (B) ROS production was evaluated using the H2DCFDA probe. The fluorescence intensity was measured by fluorimetry, and the results are expressed as the fold increase in the ROS level compared with the non-treated control. H2O2-treated parasites were used as a positive control. […]
# [6] = parasites pre-incubated with 1.0 µg/mL at 24 °C
# [7] = parasites pre-incubated with 2.5 µg/mL at 24 °C
# [8] = parasites pre-incubated with 5.0 µg/mL at 24 °C
structure (smiles),measurement,setting,value
"CCN(CC)c1ccc2cc(-n3cc(CNC(=O)/C=C/c4ccc(OC)c(OC)c4)nn3)c(=O)oc2c1 [Compound 28, N-((1-(7-(diethylamino)-2-oxo-2H-chromen-3-yl)-1H-1,2,3-triazol-4-yl)methyl) (3,4-dimethoxy) cinnamide]",CC50 at 48 h,[1],> 600 µg/mL
same,Number of Amastigotes per Cell using pre-incubated parasites,[2]; [6],5.8
same,Percentage of Infected Macrophages Using Pre-Incubated Parasites,[2]; [6],84.5%
same,Number of Amastigotes per Cell using pre-incubated parasites,[2]; [7],4.9
same,Percentage of Infected Macrophages Using Pre-Incubated Parasites,[2]; [7],80.5%
same,Number of Amastigotes per Cell using pre-incubated parasites,[2]; [8],3.6
same,Percentage of Infected Macrophages Using Pre-Incubated Parasites,[2]; [8],71.5%
same,IC50 Axenic Amastigotes,"[3]; 48 h at 24 °C, MTT, mean ± standard deviation",87.8 ± 9.7 µg/mL
same,"Selectivity index (SI), ratio CC50/IC50, axenic amastigotes",[3]; CC50 murine macrophages / IC50 axenic amastigotes,13.3
same,IC50,"[3]; Leishmania braziliensis, 48 h, 48 h at 24 °C, MTT, mean ± standard deviation",88 ± 9.7 µg/mL
same,melting point,,197 to 198.4 °C
same,"Selectivity index (SI), ratio CC50/IC50, promastigotes",[4]; CC50 murine macrophages / IC50 promastigotes,11.1
same,IC50,"[4]; Leishmania braziliensis, 48 h at 24 °C, MTT, mean ± standard deviation",106 ± 16.7 µg/mL
same,Fold increase in ROS production compared with untreated parasites,[5],2.5 fold
